In patent EP0231671B1, “Gonatriene derivatives and process for preparing them” (MITSUBISHI KASEI CORPORATION, priority 1985, dated 1987):

Test system: female rats
Test: Anti-gonadotropic activity: ovary weight after 14 days of oral administration, test group compared with control group
Type: in vivo
Set-up: key: -: no effective; +: effective; ++: very effective
Settings: suspended in 10 % ethanol-containing cotton seed oil, ovary weight vs control group
Description: Each compound obtained in Examples and suspended in a 10 % ethanol-containing cotton seed oil was orally administrated to female rats in a dose of 0.1, 1 or 10 mg/kg for 14 days. While, for the control group, only the cotton seed oil was orally administrated for the same period.
After the completion of the administration, the ovary of each rat was weighted. From the comparison of the weight in the test group with that in the control group, the anti-gonadotropic activity of the gonatriene compound of this invention was evaluated.

Structure (SMILES)	anti-gonadotropic activity (0.1 mg/kg for 14 days)	anti-gonadotropic activity (10 mg/kg for 14 days)	anti-gonadotropic activity (1 mg/kg for 14 days)
C[C@]12C=CC3=C4CCC(=O)C=C4CC[C@H]3[C@@H]1CC[C@@]2(O)CCl [Example 1, 17α-chloromethyl-17β-hydroxy-13β-methyl-gona-4.9.11-triene-3-one]	-	++	
C[C@]12C=CC3=C4CCC(=O)C=C4CC[C@H]3[C@@H]1CC[C@@]2(O)CC#N [Example 2, 17α-cyanomethyl-17β-hydroxy-13β-methyl-gona-4,9,11-triene-3-one]	-	++	+
CC[C@]12C=CC3=C4CCC(=O)C=C4CC[C@H]3[C@@H]1CC[C@@]2(O)CC#N [Example 3, 17α-cyanomethyl-17β-hydroxy-13β-ethyl-gona-4,9,11-triene-3-one]	-	++	+
CC[C@]12C=CC3=C4CCC(=O)C=C4CC[C@H]3[C@@H]1CC[C@@]2(O)CCl [Example 4, 17α-chloromethyl-17β-hydroxy-13β-ethyl-gona-4,9,11-triene-3-one]	-	++	+
CC[C@]12C=CC3=C4CCC(=O)C=C4CC[C@H]3[C@@H]1CC[C@@]2(O)COC [Example 6, 17α-methoxymethyl-17β-hydroxy-13β-ethyl-gona-4,9,11-triene-3-one]		++	
CC[C@]12C=CC3=C4CCC(=O)C=C4CC[C@H]3[C@@H]1CC[C@@]2(O)CSC [Example 7, 17α-methylthiomethyl-17β-hydroxy-13β-ethyl-aona-4.9.11-triene-3-one]	-	++	
CC[C@]12C=CC3=C4CCC(=O)C=C4CC[C@H]3[C@@H]1CC[C@@]2(O)CSC#N [Example 9, 17α-thiocyanatemethyl-17β-hydroxy-13βethyl-gona-4,9,11-triene-3-one]		++	++
